According to patent publication US20100298141A1, “SUBSTITUTED PYRIDINE N-OXIDE HERBICIDES” (E. I. DU PONT DE NEMOURS AND COMPANY, priority 2007, published 2010):

Columns and labels:
morningglory = assay: Test A pre-/postemergence greenhouse test; type: in vivo, Ipomoea spp.; conditions: for Plant response rating, Morningglory: 0 to 100 scale where 0 is no effect and 100 is complete control; for Morningglory plant response rating: 0 to 100 scale
Outline: (§1)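 Herbicidal effect is a visual injury score given about ten days post-treatment by comparison with untreated controls. Preemergence plots received a directed spray onto sown loam–sand soil; postemergence plants, at the one- to two-leaf stage and 2–10 cm tall, were sprayed at the same time.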

rice = assay: Test C flooded paddy test; type: in vivo, Oryza sativa; conditions: Flood
Outline: (§2)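 Test compounds are applied straight into paddy water held 3 cm above the soil surface, with that flood maintained for the whole test. After 13 to 15 days in the greenhouse, each species is scored visually relative to controls.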

crabgrass = assay: Test A pre-/postemergence greenhouse test; type: in vivo, Digitaria sanguinalis; conditions: for Plant response rating, Crabgrass, Large: 0 to 100 scale where 0 is no effect and 100 is complete control; for Crabgrass, Large plant response rating: 0 to 100 scale
Outline: as §1

corn = assay: Test A pre-/postemergence greenhouse test; type: in vivo, Zea mays; conditions: for Plant response rating, Corn: 0 to 100 scale where 0 is no effect and 100 is complete control; for Corn plant response rating: 0 to 100 scale
Outline: as §1

velvetleaf = assay: Test A pre-/postemergence greenhouse test; type: in vivo, Abutilon theophrasti; conditions: for Plant response rating, Velvetleaf: 0 to 100 scale where 0 is no effect and 100 is complete control; for Velvetleaf plant response rating: 0 to 100 scale
Outline: as §1

duck salad = assay: Test C flooded paddy test; type: in vivo, Heteranthera limosa; conditions: Flood
Outline: as §2

barnyardgrass [1] = assay: Test C flooded paddy test; type: in vivo, Echinochloa crus-galli; conditions: Flood
Outline: as §2

giant foxtail = assay: Test A pre-/postemergence greenhouse test; type: in vivo, Setaria faberi; conditions: for Plant response rating, Foxtail, Giant: 0 to 100 scale where 0 is no effect and 100 is complete control; for Foxtail, Giant plant response rating: 0 to 100 scale
Outline: as §1

redroot pigweed = assay: Test A pre-/postemergence greenhouse test; type: in vivo, Amaranthus retroflexus; conditions: for Plant response rating, Pigweed: 0 to 100 scale where 0 is no effect and 100 is complete control; for Pigweed plant response rating: 0 to 100 scale
Outline: as §1

umbrella sedge = assay: Test C flooded paddy test; type: in vivo, Cyperus difformis; conditions: Flood
Outline: as §2

wheat = assay: Test A pre-/postemergence greenhouse test; type: in vivo, Triticum aestivum; conditions: for Plant response rating, Wheat: 0 to 100 scale where 0 is no effect and 100 is complete control; for Wheat plant response rating: 0 to 100 scale
Outline: as §1

barnyardgrass [2] = assay: Test A pre-/postemergence greenhouse test; type: in vivo, Echinochloa crus-galli; conditions: for Plant response rating, Barnyardgrass: 0 to 100 scale where 0 is no effect and 100 is complete control; for Barnyardgrass plant response rating: 0 to 100 scale
Outline: as §1

[3] = Postemergence, 500 g ai/ha, 0 is no effect, 100 is complete control
[4] = Preemergence, 125 g ai/ha, 0 no effect, 100 complete control
[5] = Preemergence, 500 g ai/ha, 0 no effect, 100 complete control
[6] = 31 g ai/ha, scale 0 to 100 (0 no effect, 100 complete control)
[7] = 62 g ai/ha, scale 0 to 100 (0 no effect, 100 complete control)
[8] = 125 g ai/ha, scale 0 to 100, 0 no effect, 100 complete control, 13 to 15 days
[9] = 250 g ai/ha, scale 0 to 100, 0 no effect, 100 complete control, 13 to 15 days
[10] = 62 g ai/ha, scale 0 to 100, 0 no effect, 100 complete control, 13 to 15 days

Cc1ccc[n+]([O-])c1[S+]([O-])Cc1c(C(F)(F)F)nn(C)c1OC(F)F (stereo not drawn) [Compound 112]
Plant response rating, Morningglory (morningglory; Postemergence, 125 g ai/ha): 70 | Morningglory plant response rating (morningglory; [3]): 90 | Morningglory plant response rating (morningglory; [4]): 60 | Morningglory plant response rating (morningglory; [5]): 90 | Plant response rating, Rice (rice; [6]): 0 | Plant response rating, Rice (rice; [7]): 0 | Plant response rating, Rice (rice; [8]): 0 | Plant response rating, Rice (rice; [9]): 15 | Plant response rating, Crabgrass, Large (crabgrass; Postemergence, 125 g ai/ha): 70 | Crabgrass, Large plant response rating (crabgrass; [3]): 80 | Crabgrass, Large plant response rating (crabgrass; [4]): 70 | Crabgrass, Large plant response rating (crabgrass; [5]): 90 | Plant response rating, Corn (corn; Postemergence, 125 g ai/ha): 50 | Corn plant response rating (corn; [3]): 60 | Corn plant response rating (corn; [4]): 40 | Corn plant response rating (corn; [5]): 70 | Plant response rating, Velvetleaf (velvetleaf; Postemergence, 125 g ai/ha): 50 | Velvetleaf plant response rating (velvetleaf; [3]): 70 | Velvetleaf plant response rating (velvetleaf; [4]): 10 | Velvetleaf plant response rating (velvetleaf; [5]): 60 | Plant response rating, Ducksalad (duck salad; [6]): 0 | Plant response rating, Ducksalad (duck salad; [7]): 0 | Plant response rating, Ducksalad (duck salad; [8]): 20 | Plant response rating, Ducksalad (duck salad; [9]): 50 | Plant response rating, Barnyardgrass (barnyardgrass [1]; [6]): 0 | Plant response rating, Barnyardgrass (barnyardgrass [1]; [7]): 0 | Plant response rating, Barnyardgrass (barnyardgrass [1]; [8]): 15 | Plant response rating, Barnyardgrass (barnyardgrass [1]; [9]): 45 | Plant response rating, Foxtail, Giant (giant foxtail; Postemergence, 125 g ai/ha): 70 | Foxtail, Giant plant response rating (giant foxtail; [3]): 80 | Foxtail, Giant plant response rating (giant foxtail; [4]): 80 | Foxtail, Giant plant response rating (giant foxtail; [5]): 100 | Plant response rating, Pigweed (redroot pigweed; Postemergence, 125 g ai/ha): 40 | Pigweed plant response rating (redroot pigweed; [3]): 60 | Pigweed plant response rating (redroot pigweed; [4]): 10 | Pigweed plant response rating (redroot pigweed; [5]): 90 | Plant response rating, Sedge, Umbrella (umbrella sedge; [6]): 0 | Plant response rating, Sedge, Umbrella (umbrella sedge; [7]): 30 | Plant response rating, Sedge, Umbrella (umbrella sedge; [8]): 75 | Plant response rating, Sedge, Umbrella (umbrella sedge; [9]): 95 | Plant response rating, Wheat (wheat; Postemergence, 125 g ai/ha): 50 | Wheat plant response rating (wheat; [3]): 60 | Wheat plant response rating (wheat; [4]): 40 | Wheat plant response rating (wheat; [5]): 70 | Plant response rating, Barnyardgrass (barnyardgrass [2]; Postemergence, 125 g ai/ha): 70 | Barnyardgrass plant response rating (barnyardgrass [2]; [3]): 80 | Barnyardgrass plant response rating (barnyardgrass [2]; [4]): 60 | Barnyardgrass plant response rating (barnyardgrass [2]; [5]): 90

Cn1nc(C(F)(F)F)c(C[S+]([O-])c2cc(Cl)cc[n+]2[O-])c1OC(F)F (stereo not drawn) [Compound 57]
Plant response rating, Morningglory (morningglory; Postemergence, 125 g ai/ha): 30 | Morningglory plant response rating (morningglory; [3]): 70 | Morningglory plant response rating (morningglory; [4]): 40 | Plant response rating, Morningglory (morningglory; Preemergence, 500 g ai/ha): 90 | Plant response rating, Rice (rice; [10]): 0 | Plant response rating, Rice (rice; [9]): 65 | Plant response rating, Crabgrass, Large (crabgrass; Postemergence, 125 g ai/ha): 60 | Crabgrass, Large plant response rating (crabgrass; [3]): 90 | Crabgrass, Large plant response rating (crabgrass; [4]): 60 | Plant response rating, Crabgrass, Large (crabgrass; Preemergence, 500 g ai/ha): 80 | Plant response rating, Corn (corn; Postemergence, 125 g ai/ha): 0 | Corn plant response rating (corn; [3]): 60 | Corn plant response rating (corn; [4]): 0 | Plant response rating, Corn (corn; Preemergence, 500 g ai/ha): 0 | Plant response rating, Velvetleaf (velvetleaf; Postemergence, 125 g ai/ha): 30 | Velvetleaf plant response rating (velvetleaf; [3]): 70 | Velvetleaf plant response rating (velvetleaf; [4]): 50 | Plant response rating, Velvetleaf (velvetleaf; Preemergence, 500 g ai/ha): 70 | Plant response rating, Ducksalad (duck salad; [10]): 40 | Plant response rating, Ducksalad (duck salad; [9]): 95 | Plant response rating, Barnyardgrass (barnyardgrass [1]; [10]): 15 | Plant response rating, Barnyardgrass (barnyardgrass [1]; [9]): 20 | Plant response rating, Foxtail, Giant (giant foxtail; Postemergence, 125 g ai/ha): 30 | Foxtail, Giant plant response rating (giant foxtail; [3]): 60 | Foxtail, Giant plant response rating (giant foxtail; [4]): 30 | Plant response rating, Foxtail, Giant (giant foxtail; Preemergence, 500 g ai/ha): 100 | Plant response rating, Pigweed (redroot pigweed; Postemergence, 125 g ai/ha): 70 | Pigweed plant response rating (redroot pigweed; [3]): 100 | Pigweed plant response rating (redroot pigweed; [4]): 70 | Plant response rating, Pigweed (redroot pigweed; Preemergence, 500 g ai/ha): 100 | Plant response rating, Sedge, Umbrella (umbrella sedge; [9]): 100 | Plant response rating, Wheat (wheat; Postemergence, 125 g ai/ha): 50 | Wheat plant response rating (wheat; [3]): 70 | Wheat plant response rating (wheat; [4]): 20 | Plant response rating, Wheat (wheat; Preemergence, 500 g ai/ha): 40 | Plant response rating, Barnyardgrass (barnyardgrass [2]; Postemergence, 125 g ai/ha): 30 | Barnyardgrass plant response rating (barnyardgrass [2]; [3]): 50 | Barnyardgrass plant response rating (barnyardgrass [2]; [4]): 60 | Plant response rating, Barnyardgrass (barnyardgrass [2]; Preemergence, 500 g ai/ha): 100
